The NIST ThermoML archive (doi:10.1016/j.jct.2010.10.021)
“And” between values parts separate entries of the source, which are not always exact repeats. Identical values can stand only once. Numbers after ± are expanded uncertainties.

Test: xn = mol fraction of the nth substance listed
Conditions: 100 kPa, Liquid, Frequency=5 MHz, Single path-length method, x1 = 0.7

| speed of sound (1261 K) | speed of sound (1271 K) [m/s] | speed of sound (1278 K) [m/s] | speed of sound (1243 K) [m/s] | speed of sound (1254 K) [m/s] | speed of sound (1260 K) [m/s] | SMILES |
| --- | --- | --- | --- | --- | --- | --- |
| 1236 ± 25 m/s and 1235 ± 25 m/s | 1226 ± 25 | 1220 ± 24 | – | – | – | [F-].[Li+] [lithium fluoride] + [Cl-].[Cs+] |
| – | – | – | 1408 ± 28 | 1394 ± 28 | 1385 ± 28 | [F-].[Li+] [lithium fluoride] + [Br-].[K+] |
